Measured values taken from PubChem BioAssay AID2060505 (Molecular Pharmacology Branch, DTP, NCI, 2025).

Tested on: 633275-114-R-J1-PDC complex spheroids, viability
Experiment: Anticancer human tumor 633275-114-R-J1-PDC patient-derived endometrial adenocarcinoma cell line growth inhibition [GQUAD]
Conditions: for IC50: curve of first compound; for viability, T/C: stronger effect = lower value
Method in brief: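 Viability of tumor cells grown as complex spheroids with endothelial and stromal cells, exposed to drug combinations. Top concentration at or near clinical Cmax (else 10 microM), diluted in half-log increments.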
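Note: spheroids exposed to the agents for seven days.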
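Throughout, for viability, T/C: percent of DMSO vehicle control viability which is 100%.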

## O=C(c1cc(Cc2n[nH]c(=O)c3ccccc23)ccc1F)N1CCN(C(=O)C2CC2)CC1 + Cc1cnc(CNC(=O)c2c(=O)c3ccc(N4CCCN(C)CC4)nc3n3c2sc2ccccc23)cn1
Second compound 0.0316 µM
  IC50: 9930 nM
Second compound 0.1 µM
  IC50: 43.6 nM
Second compound 0.316 µM
  IC50: < 31.6 nM
Second compound 1 µM
  IC50: < 31.6 nM
Second compound 3.16 µM
  IC50: < 31.6 nM
Second compound 10 µM
  IC50: < 31.6 nM
Second compound 0.0316 µM, first compound 0.0316 µM
  viability, T/C: 63%
Second compound 0.0316 µM, first compound 0.1 µM
  viability, T/C: 60.9%
Second compound 0.0316 µM, first compound 0.316 µM
  viability, T/C: 71.4%
Second compound 0.0316 µM, first compound 1 µM
  viability, T/C: 58.2%
Second compound 0.0316 µM, first compound 3.16 µM
  viability, T/C: 57.2%
Second compound 0.0316 µM, first compound 10 µM
  viability, T/C: 50.3%
Second compound 0.1 µM, first compound 0.0316 µM
  viability, T/C: 49.5%
Second compound 0.1 µM, first compound 0.1 µM
  viability, T/C: 47.9%
Second compound 0.1 µM, first compound 0.316 µM
  viability, T/C: 49.1%
Second compound 0.1 µM, first compound 1 µM
  viability, T/C: 48.9%
Second compound 0.1 µM, first compound 3.16 µM
  viability, T/C: 41.9%
Second compound 0.1 µM, first compound 10 µM
  viability, T/C: 42.8%
Second compound 0.316 µM, first compound 0.0316 µM
  viability, T/C: 46.6%
Second compound 0.316 µM, first compound 0.1 µM
  viability, T/C: 42.7%
Second compound 0.316 µM, first compound 0.316 µM
  viability, T/C: 43.7%
Second compound 0.316 µM, first compound 1 µM
  viability, T/C: 38.9%
Second compound 0.316 µM, first compound 3.16 µM
  viability, T/C: 44%
Second compound 0.316 µM, first compound 10 µM
  viability, T/C: 33.7%
Second compound 1 µM, first compound 0.0316 µM
  viability, T/C: 37.7%
Second compound 1 µM, first compound 0.1 µM
  viability, T/C: 35.3%
Second compound 1 µM, first compound 0.316 µM
  viability, T/C: 45.3%
Second compound 1 µM, first compound 1 µM
  viability, T/C: 42.6%
Second compound 1 µM, first compound 3.16 µM
  viability, T/C: 37%
Second compound 1 µM, first compound 10 µM
  viability, T/C: 35.1%
Second compound 3.16 µM, first compound 0.0316 µM
  viability, T/C: 37.8%
Second compound 3.16 µM, first compound 0.1 µM
  viability, T/C: 38.9%
Second compound 3.16 µM, first compound 0.316 µM
  viability, T/C: 42.2%
Second compound 3.16 µM, first compound 1 µM
  viability, T/C: 30.9%
Second compound 3.16 µM, first compound 3.16 µM
  viability, T/C: 34.3%
Second compound 3.16 µM, first compound 10 µM
  viability, T/C: 31%
Second compound 10 µM, first compound 0.0316 µM
  viability, T/C: 33.4%
Second compound 10 µM, first compound 0.1 µM
  viability, T/C: 31.2%
Second compound 10 µM, first compound 0.316 µM
  viability, T/C: 28.5%
Second compound 10 µM, first compound 1 µM
  viability, T/C: 30.9%
Second compound 10 µM, first compound 3.16 µM
  viability, T/C: 33.7%
Second compound 10 µM, first compound 10 µM
  viability, T/C: 29.8%
